Assay results as given in ChEMBL document CHEMBL1150181, “Chemistry of Sponges, VIII. Anomoian A, a Bromotyrosine Derivative from Anomoiantbella popeae” (J Nat Prod, 1990).
Activity calls are given as the source filed them.

Legend:
Format in all cases: functional, organism-based
Staphylococcus aureus = experiment: Antimicrobial activity against Staphylococcus aureus at 10 ug/disk
Bacillus subtilis = experiment: Antimicrobial activity against Bacillus subtilis at 5 ug/disk
Candida albicans = experiment: Antimicrobial activity against Candida albicans at 25 ug/disk

Measured: Activity

CNC(Cc1cc(Br)c(OC)c(Br)c1)C(=O)NCCCOc1c(Br)cc(CCN(C)C)cc1Br (stereo not drawn)
active: all assays above
